Structures can show the parent of a compound that is named as a salt. A value given as a limit tells only on which side of the number the result lay.

Data set [1] in a line: Solubility in water and olive oil (Method III). Here is the method: a) Preparation of olive oil or aqueous solutions. 1 ml of olive oil or I ml of double-distilled water (or dilute NaOH pH=7.6) was added to 1 mg or 10 mg or 50 mg of the respective compound at 37° C. and it was checked whether a clear solution was obtained. The optionally centrifuged and decanted olive oil solutions were heated for 5 minutes using a Bunsen burner and the degree of browning of the olive oil was determined. […] Samples having poor protective action are given a (*) in the table (see below).

The subject of data set [2] is thrombus formation in rats. The data set is described as follows: Laser-induced thrombosis in rats in vivo (Method VIII). The settings on record: 30 mg/kg oral, laser induction 60 min after administration. Also on record: species or system rat. Here is the method: The experimental procedure was carried out in every detail as described in U.S. Pat. No. 4,694,024. Laser induction took place 60 min after oral administration of the antioxidants.

[3] abbreviates: olive oil, organic solvent or mixture.

Usually solubility stands for how much of the substance goes into solution per volume. `O=C(O)C(S)C(S)C(=O)O` (centres unmarked) [2,3-Mercaptosuccinic acid, reference compound]: the solubility is below 100 µg/mL in data set [1] (setting [3]) and above 10000 µg/mL in data set [1] (water).
Taken in the same sequence, the figures for `CCCCCCCCCCCCCCCCCCCC(O)C(Cc1cc(C(C)(C)C)c(O)c(C(C)(C)C)c1)C(=O)OCC` (centres unmarked) [Example 24] were above 50000 µg/mL and below 100 µg/mL.
Taken in the same sequence, the figures for `CCCCCCCCCCCCCCCCCCOCC(CO)OC(=O)c1cc(C(C)(C)C)c(O)c(C(C)(C)C)c1` (centres unmarked) [Example 22] were above 50000 µg/mL and below 100 µg/mL.
The corresponding values for `CCCCCCCCCCCCCCCCCCCC(=O)C(=Cc1cc(C(C)(C)C)c(O)c(C(C)(C)C)c1)C(=O)OCC` [Example 28] are above 50000 µg/mL and below 100 µg/mL.
With `CCCCCCCCCCCCCCCCCCCC(O)C(CO)Cc1cc(C(C)(C)C)c(O)c(C(C)(C)C)c1` (centres unmarked) [Example 25], the solubility in data set [1] (setting [3]) was above 50000 µg/mL; in data set [1] (water), below 100 µg/mL.
Take `O[C@H](CS)[C@@H](O)CS` [Dithioerythritol, reference compound]: the solubility in data set [1] (setting [3]) is below 100 µg/mL; in data set [1] (water), above 10000 µg/mL.
Taken in the same sequence, the figures for `CC(C)CCCC(C)C1CC[C@H]2C3CC=C4CC(OC(=O)CCCCC(S)CCS)CC[C@]4(C)[C@H]3CC[C@]12C` (some centres unmarked) [Example 46] were above 50000 µg/mL and below 100 µg/mL.
Consider `CCCCCCNC(=O)C1(C)CCc2c(C)c(O)c(C)c(C)c2O1` (centres unmarked) [Example 4], for which the figures for the solubility in data set [1] (setting [3]) and in data set [1] (water) were above 10000 µg/mL and above 100 µg/mL, respectively.
Consider `CCCCCCC(=O)NCCCNC(=O)C1(C)CCc2c(C)c(O)c(C)c(C)c2O1` (centres unmarked) [Example 5], for which the solubility is above 10000 µg/mL in data set [1] (setting [3]) and below 100 µg/mL in data set [1] (water).
Taken in the same sequence, the figures for `CC(C)CCCC(C)C1CC[C@H]2C3CC=C4CC(OC(=O)CCCCC5CCSS5)CC[C@]4(C)[C@H]3CC[C@]12C` (some centres unmarked) [Example 53] were above 50000 µg/mL and below 100 µg/mL.
The corresponding values for `CCCCCCCCCCCCCCCCCC(=O)OC[C@H](OC(=O)CCCCCCCCCCCCCCCCC)[C@H]1OC(=O)C(OP(=O)(OCC)OCC)=C1O` [Example 35] are above 1000 µg/mL and below 100 µg/mL.
The corresponding values for `CCCCCCCCCCCCCCCCCC(=O)OC[C@H](O)[C@H]1OC(=O)C(OP(=O)(OCC)OCC)=C1O` [Example 34] are above 1000 µg/mL and below 100 µg/mL.
As for `CC(C)(C)c1cc(C2SCCC(CCCCC(=O)O)S2)cc(C(C)(C)C)c1O` (centres unmarked) [Example 19], the values for the solubility in data set [1] (setting [3]) and in data set [1] (water) were above 50000 µg/mL and below 100 µg/mL, respectively.
Taken in the same sequence, the figures for `CCCCCCCCCCCCCCCC(=O)NCCCNC(=O)C1(C)CCc2c(C)c(O)c(C)c(C)c2O1` (centres unmarked) [Example 7] were above 10000 µg/mL and below 100 µg/mL.
In the case of `CC(C)CCC[C@@H](C)[C@H]1CC[C@H]2[C@@H]3CC=C4C[C@@H](OCCOC5=C(O)[C@@H]([C@@H](O)CO)OC5=O)CC[C@]4(C)[C@H]3CC[C@]12C` [Example 33], in data set [2], the “Reduction of thrombus formation” value is reported as 13%. Also, the solubility in data set [1] (setting [3]) is above 1000 µg/mL; in data set [1] (water), below 100 µg/mL.
Consider `Cc1c(C)c2c(c(C)c1O)CCC(C)(C(=O)O)O2` (centres unmarked) [6-Hydroxy-2,5,7,8-tetramethylchroman-2-carboxylic acid, reference compound], for which the values for the solubility in data set [1] (setting [3]) and in data set [1] (water) were below 100 µg/mL and above 10000 µg/mL, respectively.
Taken in the same sequence, the figures for `Cc1c(C)c2c(c(C)c1O)CCC(C)(C(=O)NC1CCCCC1)O2` (centres unmarked) [Example 8] were above 10000 µg/mL and below 100 µg/mL.
As to `CC(C)CCC[C@@H](C)[C@H]1CC[C@H]2[C@@H]3CC=C4C[C@@H](OCCOCc5cc(C(C)(C)C)c(O)c(C(C)(C)C)c5)CC[C@]4(C)[C@H]3CC[C@]12C` [Example 13], the “Reduction of thrombus formation” value in data set [2] amounted to 17%. Moreover, the figures for the solubility in data set [1] (setting [3]) and in data set [1] (water) were above 50000 µg/mL and below 100 µg/mL, respectively.
Regarding `CCCCCCCCCCCCCCCC(=O)OC[C@H](O)[C@H]1OC(=O)C(O)=C1O` [Ascorbyl palmitate, reference compound], the solubility was above 100 µg/mL in data set [1] (setting [3]) and below 100 µg/mL in data set [1] (water).
The corresponding values for `O=C(O)CCCC[C@@H](S)CCS` (racemic) [Dihydrolipoic acid, Na salt, Dihydrolipoic acid, reference compound] are below 100 µg/mL and above 10000 µg/mL.
Turning to `Cc1c(C)c2c(c(C)c1O)CCC(C)(C(=O)NCCCNC(=O)CC[C@@H](C)[C@H]1CC[C@H]3[C@@H]4[C@H](O)C[C@@H]5C[C@H](O)CC[C@]5(C)[C@H]4C[C@H](O)[C@]13C)O2` (some centres unmarked) [Example 1], the “Reduction of thrombus formation” value in data set [2] is reported as 16%. Besides, the solubility was above 10000 µg/mL in data set [1] (setting [3]) and above 100 µg/mL in data set [1] (water).
In the case of `CCCCCCCCCCCCCCCCCCOCC(O)COC(=O)c1cc(C(C)(C)C)c(O)c(C(C)(C)C)c1` (centres unmarked) [Example 23], the solubility was above 50000 µg/mL in data set [1] (setting [3]) and below 100 µg/mL in data set [1] (water).
The corresponding values for `CC(C)(C)OC(=O)CCCCC(CCSCc1cc(C(C)(C)C)c(O)c(C(C)(C)C)c1)SCc1cc(C(C)(C)C)c(O)c(C(C)(C)C)c1` (centres unmarked) [Example 20] are above 50000 µg/mL and below 100 µg/mL.
As for `CCCCCCCCCCCCCCCCCCC(COCCOC1=C(O)C(C(O)CO)OC1=O)COCCOC1=C(O)C(C(O)CO)OC1=O` (centres unmarked) [Example 36], the “Reduction of thrombus formation” value in data set [2] is recorded as 17%. Further, the “suitability for use in aqueous oil emulsions owing to solubility properties” value in data set [1] is given as “outstandingly suitable for use in aqueous oil emulsions”. Further, the solubility in data set [1] (setting [3]) and in data set [1] (water) was above 10000 µg/mL in each case.
Turning to `CCCCCCCCCCCCCCCCCCCC(O)C(Cc1cc(C(C)(C)C)c(O)c(C(C)(C)C)c1)C(=O)O` (centres unmarked) [Example 27], the solubility in data set [1] (setting [3]) was above 1000 µg/mL; in data set [1] (water) it was above 10000 µg/mL.
Taken in the same sequence, the figures for `CC(CCC(=O)NCCCNC(=O)CCCCC(S)CCS)C1CC[C@H]2C3CC[C@@H]4C[C@H](O)CC[C@]4(C)[C@H]3C[C@H](O)[C@]12C` (some centres unmarked) [Example 48] were above 50000 µg/mL and below 100 µg/mL.
Take `CCCCCCCCCCCCCCCCCCNC(=O)C1(C)CCc2c(C)c(O)c(C)c(C)c2O1` (centres unmarked) [Example 6]: the figures for the solubility in data set [1] (setting [3]) and in data set [1] (water) were above 10000 µg/mL and below 100 µg/mL, respectively.
Taken in the same sequence, the figures for `O=C(O)c1cc(O)c(O)c(O)c1` [Gallic acid, reference compound] were below 100 µg/mL and above 10000 µg/mL.
Regarding `CC(C)(Sc1cc(C(C)(C)C)c(O)c(C(C)(C)C)c1)Sc1cc(C(C)(C)C)c(O)c(C(C)(C)C)c1` [4,4'-(Isopropylidenedithio)bis[2,6-di-tert.-butylphenol], reference compound], the “Reduction of thrombus formation” value in data set [2] came out at 6%.
Turning to `Cc1c(C)c2c(c(C)c1O)CCC(C)(C(=O)NCCO[C@H]1CC[C@@]3(C)[C@@H](C1)C[C@@H](O)[C@@H]1[C@@H]3C[C@H](O)[C@]3(C)[C@@H]([C@H](C)CCC(=O)O)CC[C@@H]13)O2` (some centres unmarked) [Example 3], the “Reduction of thrombus formation” value in data set [2] worked out at 11%. The solubility is above 1000 µg/mL in data set [1] (setting [3]) and below 100 µg/mL in data set [1] (water).
As to `CCCCCCCCCCCCCCCCCCOCC(O)COCc1cc(C(C)(C)C)c(O)c(C(C)(C)C)c1` (centres unmarked) [Example 21], the solubility in data set [1] (setting [3]) is above 50000 µg/mL; in data set [1] (water) it was below 100 µg/mL.
Taken in the same sequence, the figures for `CCCCCCCCCCCCCCCCCCP(=O)(OC1=C(O)C([C@@H](O)CO)OC1=O)OC1=C(O)C([C@@H](O)CO)OC1=O` (some centres unmarked) [Example 37] were above 1000 µg/mL and above 10000 µg/mL.
Taken in the same sequence, the figures for `CCCCCCCCCCCCCCCCCCCC1OC(C)(C)OCC1Cc1cc(C(C)(C)C)c(O)c(C(C)(C)C)c1` (centres unmarked) [Example 26] were above 50000 µg/mL and below 100 µg/mL.

The values are drawn from US5508275A, “Lipid-selective antioxidants and their preparation and use” (Hoechst Aktiengesellschaft, priority 1990, dated 1996).
